System: PKA reporter Reg-F[1]:Cat-F[2]
Experiment: Protein-fragment complementation
Type: cell-based
Conditions: β2AR-HEK293 cells

Row | Compound | Effect on luminescence by β2AR activation (control) (1 μM, 30 min) | Effect of pretreatment on the response to 19 (control) (1 μM pretreatment)
1 | CC(C)NCC(O)c1ccc(O)c(O)c1 (centres unmarked) [Analogue 19, isoproterenol] | able to reduce luminescence | 
2 | Cc1ccc(OCC(O)C(C)NC(C)C)c2c1CCC2 (centres unmarked) [Analogue 20, IC118551] |  | capable of preventing the effects of 19

Source: PMC2870997 (Bioorganic & medicinal chemistry letters, 2009)
